Laboratory results published in PubChem BioAssay AID1963838 (Molecular Pharmacology Branch, DTP, NCI, 2024).

System: 855422-203-R-J1-PDC complex spheroid viability
Experiment: Anticancer human tumor 855422-203-R-J1-PDC patient-derived bladder carcinoma cell line growth inhibition [POLQ]
Settings: for IC50: curve of first compound; for viability, T/C: stronger effect = lower value
How it was run: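 Growth inhibition in 3D: complex spheroids (tumor PDC, HUVEC, MSC) treated with POLQ inhibitor combinations; where Cmax unknown, highest tested concentration 10 microM, except SN-38 at 1 microM.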

[1] = second compound 0.0316 µM, first compound 0.0316 µM
[2] = second compound 0.0316 µM, first compound 0.1 µM
[3] = second compound 0.0316 µM, first compound 0.316 µM
[4] = second compound 0.0316 µM, first compound 1 µM
[5] = second compound 0.0316 µM, first compound 3.16 µM
[6] = second compound 0.0316 µM, first compound 10 µM
[7] = second compound 0.1 µM, first compound 0.0316 µM
[8] = second compound 0.1 µM, first compound 0.1 µM
[9] = second compound 0.1 µM, first compound 0.316 µM
[10] = second compound 0.1 µM, first compound 1 µM
[11] = second compound 0.1 µM, first compound 3.16 µM
[12] = second compound 0.1 µM, first compound 10 µM
[13] = second compound 0.316 µM, first compound 0.0316 µM
[14] = second compound 0.316 µM, first compound 0.1 µM
[15] = second compound 0.316 µM, first compound 0.316 µM
[16] = second compound 0.316 µM, first compound 1 µM
[17] = second compound 0.316 µM, first compound 3.16 µM
[18] = second compound 0.316 µM, first compound 10 µM
[19] = second compound 1 µM, first compound 0.0316 µM
[20] = second compound 1 µM, first compound 0.1 µM
[21] = second compound 1 µM, first compound 0.316 µM
[22] = second compound 1 µM, first compound 1 µM
[23] = second compound 1 µM, first compound 3.16 µM
[24] = second compound 1 µM, first compound 10 µM
[25] = second compound 3.16 µM, first compound 0.0316 µM
[26] = second compound 3.16 µM, first compound 0.1 µM
[27] = second compound 3.16 µM, first compound 0.316 µM
[28] = second compound 3.16 µM, first compound 1 µM
[29] = second compound 3.16 µM, first compound 3.16 µM
[30] = second compound 3.16 µM, first compound 10 µM
[31] = second compound 10 µM, first compound 0.0316 µM
[32] = second compound 10 µM, first compound 0.1 µM
[33] = second compound 10 µM, first compound 0.316 µM
[34] = second compound 10 µM, first compound 1 µM
[35] = second compound 10 µM, first compound 3.16 µM
[36] = second compound 10 µM, first compound 10 µM
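Also: spheroids exposed to compounds for seven days before readout.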

## COc1cc(C2c3cc4c(cc3C(OC3OC5COC(C)OC5C(O)C3O)C3COC(=O)C23)OCO4)cc(OC)c1O (centres undefined) + Cc1cccc(N(C)C(=O)C2C(O)CCN2c2nc(C)cc(C(F)(F)F)c2C#N)c1
Second compound 0.0316 µM
  IC50: 229 nM
Second compound 0.1 µM
  IC50: 222 nM
Second compound 0.316 µM
  IC50: 205 nM
Second compound 1 µM
  IC50: 189 nM
Second compound 3.16 µM
  IC50: 180 nM
Second compound 10 µM
  IC50: 137 nM
[1]
  viability, T/C: 102%
[2]
  viability, T/C: 102%
[3]
  viability, T/C: 30.1%
[4]
  viability, T/C: 11.4%
[5]
  viability, T/C: 7.61%
[6]
  viability, T/C: 4.64%
[7]
  viability, T/C: 98.4%
[8]
  viability, T/C: 98.4%
[9]
  viability, T/C: 28.7%
[10]
  viability, T/C: 12.5%
[11]
  viability, T/C: 6.62%
[12]
  viability, T/C: 4.51%
[13]
  viability, T/C: 111%
[14]
  viability, T/C: 89.8%
[15]
  viability, T/C: 25.9%
[16]
  viability, T/C: 11.4%
[17]
  viability, T/C: 8.46%
[18]
  viability, T/C: 4.61%
[19]
  viability, T/C: 113%
[20]
  viability, T/C: 80.2%
[21]
  viability, T/C: 24.8%
[22]
  viability, T/C: 11.8%
[23]
  viability, T/C: 6.9%
[24]
  viability, T/C: 5.16%
[25]
  viability, T/C: 97.7%
[26]
  viability, T/C: 77%
[27]
  viability, T/C: 23.5%
[28]
  viability, T/C: 12.4%
[29]
  viability, T/C: 6.67%
[30]
  viability, T/C: 4.34%
[31]
  viability, T/C: 97%
[32]
  viability, T/C: 60.9%
[33]
  viability, T/C: 20.7%
[34]
  viability, T/C: 13.5%
[35]
  viability, T/C: 6.34%
[36]
  viability, T/C: 4.46%

## O=c1[nH]cc(F)c(=O)[nH]1 + Cc1cccc(N(C)C(=O)C2C(O)CCN2c2nc(C)cc(C(F)(F)F)c2C#N)c1
Second compound 0.0316 µM
  IC50: 605 nM
Second compound 0.1 µM
  IC50: 389 nM
Second compound 0.316 µM
  IC50: 387 nM
Second compound 1 µM
  IC50: 496 nM
Second compound 3.16 µM
  IC50: 537 nM
Second compound 10 µM
  IC50: 554 nM
[1]
  viability, T/C: 133%
[2]
  viability, T/C: 96.3%
[3]
  viability, T/C: 67.1%
[4]
  viability, T/C: 36.8%
[5]
  viability, T/C: 27.6%
[6]
  viability, T/C: 25.7%
[7]
  viability, T/C: 109%
[8]
  viability, T/C: 128%
[9]
  viability, T/C: 54.8%
[10]
  viability, T/C: 33.2%
[11]
  viability, T/C: 26.3%
[12]
  viability, T/C: 24.2%
[13]
  viability, T/C: 115%
[14]
  viability, T/C: 118%
[15]
  viability, T/C: 54.6%
[16]
  viability, T/C: 34.5%
[17]
  viability, T/C: 27.4%
[18]
  viability, T/C: 23.1%
[19]
  viability, T/C: 112%
[20]
  viability, T/C: 107%
[21]
  viability, T/C: 61.1%
[22]
  viability, T/C: 33.7%
[23]
  viability, T/C: 26.6%
[24]
  viability, T/C: 24.1%
[25]
  viability, T/C: 109%
[26]
  viability, T/C: 99.5%
[27]
  viability, T/C: 62.6%
[28]
  viability, T/C: 35.2%
[29]
  viability, T/C: 29.1%
[30]
  viability, T/C: 27%
[31]
  viability, T/C: 109%
[32]
  viability, T/C: 114%
[33]
  viability, T/C: 65.2%
[34]
  viability, T/C: 40.1%
[35]
  viability, T/C: 32.6%
[36]
  viability, T/C: 26.6%
